# Peptide text beside a SMILES is read from it. * marks the point of attachment. Cbz = O=C(OCc1ccccc1)*
# Assays:
# [1] = test system: relaxed pBS (SK+) plasmid DNA; experiment: Topoisomerase I unwinding assay (DNA intercalation); details: m-AMSA and etoposide 50 and 300 μM; compound 8 50, 100, 300 μM
# Experimental: Therefore, compound 8 interacts in reversible manner with Top1 to inhibit the plasmid relaxation activity (Figure 1).
# The competence of the drug to intercalate into plasmid DNA was determined by Top1 unwinding assay.[36],[44] Assays were performed with 50 fmol of pBluscript (SK+) DNA in the presence or absence of compound 8, m-AMSA, and etoposide at indicated concentrations. Excess of DNA topoisomerase I was reacted with supercoiled plasmid DNA to generate relaxed DNA for the unwinding assays. The relaxed DNA was purified by proteolytic digestion with proteinase K at 37 °C, followed by phenol/chloroform extraction and ethanol precipitation. The unwinding assays were carried out at 37 °C for 15 min with independent compounds and were analyzed by 1% agarose gel as described above.
# [2] = target: T1, cellular Top1 in MCF7 cells (Homo sapiens, UniProt P11387); experiment: Western blot of Top1 in whole cell extracts of treated MCF7 cells; assay type: cell-based; details: MG132 100 nM preincubated 4 h, then compound 8 10 μM 12 h
# T1 construct: endogenous in cells; host or cells: MCF7 cells
# T1 sequence (P11387 2-765 limits assumed): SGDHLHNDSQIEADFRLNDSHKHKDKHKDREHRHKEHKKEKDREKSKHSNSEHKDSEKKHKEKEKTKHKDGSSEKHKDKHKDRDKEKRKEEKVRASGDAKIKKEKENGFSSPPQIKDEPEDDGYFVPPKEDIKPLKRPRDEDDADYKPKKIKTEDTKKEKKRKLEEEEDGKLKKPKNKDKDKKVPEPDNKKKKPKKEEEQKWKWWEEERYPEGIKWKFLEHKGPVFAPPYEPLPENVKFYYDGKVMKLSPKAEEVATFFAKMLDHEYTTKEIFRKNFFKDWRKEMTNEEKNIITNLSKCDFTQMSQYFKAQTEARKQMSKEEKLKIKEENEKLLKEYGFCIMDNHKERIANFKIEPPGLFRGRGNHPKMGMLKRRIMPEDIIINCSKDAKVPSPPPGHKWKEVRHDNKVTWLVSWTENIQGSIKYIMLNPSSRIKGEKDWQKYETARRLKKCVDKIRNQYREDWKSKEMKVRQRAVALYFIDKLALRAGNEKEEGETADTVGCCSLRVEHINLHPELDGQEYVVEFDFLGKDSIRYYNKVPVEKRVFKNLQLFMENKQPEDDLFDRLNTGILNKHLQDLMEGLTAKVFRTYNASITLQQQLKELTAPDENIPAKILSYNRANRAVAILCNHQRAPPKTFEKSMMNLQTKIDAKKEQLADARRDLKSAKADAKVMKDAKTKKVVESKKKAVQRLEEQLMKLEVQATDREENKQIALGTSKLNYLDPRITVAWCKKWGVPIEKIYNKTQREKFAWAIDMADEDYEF
# Experimental: Because compound 8 binds with free Top1 (Figure 3) and inhibits Top1cc formation in live cells (Figure 2E), we examined the impact of compound 8 on endogenous Top1. Cellular lysates were prepared from MCF7 cells treated with compound 8 for indicated times and were analyzed by Western blotting. […] Because proteasome has been implicated for Top1 degradation,[7],[9],[45] we used proteasome specific inhibitor (MG132) to investigate Top1 proteolysis in compound 8 treated cells.
# Preparation of whole cell extracts from MCF7 cells and immunoblotting were carried out as described.[6],[40],[41] Immunoreactivity was detected using ECL chemiluminescence reaction (Amersham) under ChemiDoc MP system (Bio-Rad, USA).
# [3] = test system: MCF7 cells; experiment: Measurement of intracellular ROS (H2DCFDA); assay type: cell-based, human; details: NAC 10 mM pretreatment 30 min before compound 8 10 μM
# Source text: Next, to investigate the mechanistic link between compound 8 induced cellular Top1 inhibition (Figure 1), degradation (Figure 4A and Figure 4B), and activation of apoptosis (Figure 4C), we tested reactive oxygen species (ROS) formation and accumulation of oxidative DNA fragmentation[15],[17],[46] in compound 8 treated MCF7 cells. […] We observed a marked elevation (∼3- to 5-fold) in ROS accumulation (Figure 5A) under similar conditions that activate PARP1 cleavage (Figure 4C). Nonetheless, MCF7 cells pretreated with N-acetylcysteine (NAC), a specific inhibitor of ROS, reduced compound 8 induced ROS generation by ∼3-fold (Figure 5A).
# Intracellular ROS was detected in drug-treated MCF7 cells with or without pretreatment of N-acetyl-L-cysteine (NAC) for indicated time as described.[13],[46] Briefly, cells were washed and resuspended in 500 μL of 1× PBS and were loaded with 2 μg/mL of H2DCFDA (Molecular Probes) for 30 min, and green fluorescence of 2,7-dichlorofluorescein was measured at 515 nm by spectrofluorometer.
# [4] = test system: MCF7 cells; experiment: Alkaline comet assay; assay type: cell-based, human; details: NAC 10 mM pretreatment 30 min before compound 8
# Source text: Therefore, we directly measured compound 8 induced DNA strand breaks at single cellular level by using alkaline comet assays (Figure 5B,C) and simultaneously measured the apoptotic cell death by immunofluorescence staining of the apoptosis marker phosphatidylserine with annexin V-FITC antibody (Figure 5D,E). Compound 8 treated MCF7 cells accumulate ∼8-fold increase in DNA strand breaks (Figure 5B and Figure 5C) compared to untreated cells, resulting in ∼7-fold elevation in compound 8 induced annexin V(+) apoptotic cells (Figure 5D and Figure 5E). […] Therefore, we conclude that compound 8 triggers reactive oxygen species induced DNA degradation and apoptotic cell death without stabilizing Top1-DNA cleavage complexes.
# To detect the levels of drug-induced DNA breaks, after treatment MCF7 cells were subjected to alkaline comet assays according to the manufacturer’s instructions (Trevigen, USA) and comet length was measured and was scored for at least 50 cells. Distributions of comet lengths were compared using the Student’s t-test as described previously.[13],[40],[50]
# [5] = target: T2, EGFP-human Top1 in MCF7 cells (Homo sapiens, UniProt P11387); experiment: FRAP of EGFP-Top1 in live MCF7 cells; assay type: cell-based; details: 5 μM, 10 min
# T2 construct: expressed in transfected cells; host or cells: MCF7 cells, transient transfection (Lipofectamine 2000)
# T2 sequence (P11387 1-765): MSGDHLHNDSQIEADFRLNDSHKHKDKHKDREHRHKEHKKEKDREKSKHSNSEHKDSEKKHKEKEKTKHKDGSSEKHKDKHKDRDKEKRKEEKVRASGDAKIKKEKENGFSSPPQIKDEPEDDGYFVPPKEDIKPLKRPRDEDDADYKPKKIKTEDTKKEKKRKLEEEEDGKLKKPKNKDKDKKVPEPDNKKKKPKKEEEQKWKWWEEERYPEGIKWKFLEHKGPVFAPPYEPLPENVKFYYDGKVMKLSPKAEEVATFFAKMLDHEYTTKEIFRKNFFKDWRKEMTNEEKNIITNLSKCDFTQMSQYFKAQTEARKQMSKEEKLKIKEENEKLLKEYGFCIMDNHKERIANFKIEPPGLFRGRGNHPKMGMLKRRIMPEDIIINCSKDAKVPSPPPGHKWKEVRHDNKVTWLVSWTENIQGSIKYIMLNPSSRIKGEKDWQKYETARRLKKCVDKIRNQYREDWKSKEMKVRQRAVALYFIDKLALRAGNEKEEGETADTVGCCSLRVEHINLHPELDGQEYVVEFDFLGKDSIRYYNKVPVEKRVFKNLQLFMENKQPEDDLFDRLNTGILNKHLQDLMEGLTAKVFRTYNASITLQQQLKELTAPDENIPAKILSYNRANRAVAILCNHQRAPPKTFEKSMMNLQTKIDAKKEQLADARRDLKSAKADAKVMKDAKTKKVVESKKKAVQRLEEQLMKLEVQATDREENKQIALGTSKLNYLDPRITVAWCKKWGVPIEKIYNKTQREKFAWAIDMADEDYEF
# Experimental: To obtain direct evidence for compound 8 mediated inhibition of Top1cc formation in live human carcinoma cells, we used MCF7 cells and transiently expressed EGFP-Top1. Live cells expressing ectopic Top1 were analyzed under laser confocal microscopy equipped with fluorescence recovery after photobleaching (FRAP) technology.[40]−[42]
# Photobleaching experiments were performed as described formerly[40]−[42] using Andor Spining disk inverted confocal laser-scanning microscope equipped with a 60×/1.42 NA oil-immersion objective (Olympus) and with a CO2-controlled on-stage heated environmental chamber set to 37 °C. FRAP analyses were carried out with living MCF7 cells ectopically expressing EGFP-human Top1 grown on chamber cover glass (Genetix, India) and drug treated as indicated. For FRAP analysis, a subnuclear spot was bleached for 30 ms by solid-state laser line (488 nm for EGFP) adapted to the fluorescent protein of interest and FRAP curves were generated individually normalized to the prebleach signal as described previously.[42]
smiles,measurement,setting,value
COc1cc(NS(C)(=O)=O)ccc1Nc1c2ccccc2nc2ccccc12 [m-AMSA],Negative supercoiling of relaxed plasmid DNA (intercalation),[1],incites a net negative supercoiling of the relaxed plasmid DNA
"CC(C)C[C@@H](C=O)NC(=O)[C@H](CC(C)C)NC(=O)[C@H](CC(C)C)NC(=O)OCc1ccccc1 [MG132, reference compound] (Cbz-Leu-Leu-Leu-aldehyde)",Effect on 8-induced degradation of Top1,[2],abrogated
"CC(=O)N[C@@H](CS)C(=O)O [NAC, N-acetyl-L-cysteine]",Reduction of compound 8 induced ROS generation,[3],~3 fold
same,Decrease in compound 8 induced DNA breaks,[4],~4 fold
COc1cc([C@@H]2c3cc4c(cc3[C@@H](O[C@@H]3O[C@@H]5CO[C@@H](C)O[C@H]5[C@H](O)[C@H]3O)[C@H]3COC(=O)[C@H]23)OCO4)cc(OC)c1O [etoposide],Negative supercoiling of relaxed plasmid DNA (intercalation),[1],failed to show such effect
"CC[C@@]1(O)C(=O)OCc2c1cc1n(c2=O)Cc2cc3ccccc3nc2-1 [CPT, Camptothecin, reference compound]",Increase of Top1 immobile population (FRAP),[5],40–50%
